Experimental data: PubChem BioAssay (NCI)
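Abbreviation: GI50, concentration required for 50% inhibition of growth. TGI is the concentration that stops growth completely.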

Assays:
Assay in all cases: NCI-60 cell line screen, 384-well format
EKVX NSCLC = system: EKVX NSCLC
OVCAR-5 ovarian = system: OVCAR-5 ovarian
RPMI-8226 leukemia = system: RPMI-8226 leukemia
NCI-H322M lung = system: NCI-H322M lung
A549 NSCLC = system: A549 NSCLC
COLO 205 colon = system: COLO 205 colon
RXF 393 renal = system: RXF 393 renal
HL-60(TB) leukemia = system: HL-60(TB) leukemia
NCI-H522 lung = system: NCI-H522 lung
LOX IMVI melanoma = system: LOX IMVI melanoma
SNB-19 CNS = system: SNB-19 CNS
IGROV1 ovarian = system: IGROV1 ovarian
MOLT-4 leukemia = system: MOLT-4 leukemia
786-0 renal = system: 786-0 renal
OVCAR-4 ovarian = system: OVCAR-4 ovarian
CCRF-CEM leukemia = system: CCRF-CEM leukemia
UO-31 renal = system: UO-31 renal
NCI-H23 lung = system: NCI-H23 lung
SK-MEL-5 melanoma = system: SK-MEL-5 melanoma
HOP-92 NSCLC = system: HOP-92 NSCLC
A498 renal = system: A498 renal
NCI-H226 lung = system: NCI-H226 lung
UACC-257 melanoma = system: UACC-257 melanoma
DU-145 prostate = system: DU-145 prostate
MCF7 breast = system: MCF7 breast
MDA-MB-435 melanoma = system: MDA-MB-435 melanoma
TK-10 renal = system: TK-10 renal
K-562 leukemia = system: K-562 leukemia
SW-620 colon = system: SW-620 colon
SNB-75 CNS = system: SNB-75 CNS
KM12 colon = system: KM12 colon
T-47D breast = system: T-47D breast
CAKI-1 renal = system: CAKI-1 renal
HCC-2998 colon = system: HCC-2998 colon
HCT-15 colon = system: HCT-15 colon
BT-549 breast = system: BT-549 breast
SF-539 CNS = system: SF-539 CNS
SK-OV-3 ovarian = system: SK-OV-3 ovarian
PC-3 prostate = system: PC-3 prostate
MALME-3M melanoma = system: MALME-3M melanoma
U251 glioblastoma = system: U251 glioblastoma
HOP-62 NSCLC = system: HOP-62 NSCLC
SN12C renal = system: SN12C renal
SK-MEL-28 melanoma = system: SK-MEL-28 melanoma
NCI/ADR-RES ovarian = system: NCI/ADR-RES ovarian
SK-MEL-2 melanoma = system: SK-MEL-2 melanoma
UACC-62 melanoma = system: UACC-62 melanoma
HT29 colon = system: HT29 colon
NCI-H460 NSCLC = system: NCI-H460 NSCLC
SR leukemia = system: SR leukemia
SF-268 CNS = system: SF-268 CNS
OVCAR-3 ovarian = system: OVCAR-3 ovarian
HCT-116 colon = system: HCT-116 colon
MDA-MB-231 breast = system: MDA-MB-231 breast
M14 melanoma = system: M14 melanoma
SF-295 CNS = system: SF-295 CNS
OVCAR-8 ovarian = system: OVCAR-8 ovarian
MDA-MB-468 breast = system: MDA-MB-468 breast
ACHN renal = system: ACHN renal

Cc1nn(C)c(COc2ccc(N3CCN(S(=O)(=O)N(C)C)CC3)cc2)c1-c1cccc2c(CCCOc3cccc4ccccc34)c(C(=O)O)n(CCN3CCOCC3)c12
GI50 (EKVX NSCLC): 4.87 µM | TGI (EKVX NSCLC): 16.7 µM | GI50 (OVCAR-5 ovarian): 5.75 µM | TGI (OVCAR-5 ovarian): 16.2 µM | GI50 (RPMI-8226 leukemia): 1.76 µM | TGI (RPMI-8226 leukemia): 3.16 µM | GI50 (NCI-H322M lung): 6.07 µM | TGI (NCI-H322M lung): 14.6 µM | GI50 (A549 NSCLC): 9.44 µM | TGI (A549 NSCLC): 23.3 µM | GI50 (COLO 205 colon): 4.33 µM | TGI (COLO 205 colon): 13.3 µM | GI50 (RXF 393 renal): 1.79 µM | TGI (RXF 393 renal): 5.04 µM | GI50 (HL-60(TB) leukemia): 2.12 µM | TGI (HL-60(TB) leukemia): 3.58 µM | GI50 (NCI-H522 lung): 2.64 µM | TGI (NCI-H522 lung): 5.42 µM | GI50 (LOX IMVI melanoma): 5.6 µM | TGI (LOX IMVI melanoma): 13.5 µM | GI50 (SNB-19 CNS): 3.77 µM | TGI (SNB-19 CNS): 12.8 µM | GI50 (IGROV1 ovarian): 3.11 µM | TGI (IGROV1 ovarian): 8.58 µM | GI50 (MOLT-4 leukemia): 2.02 µM | TGI (MOLT-4 leukemia): 3.66 µM | GI50 ([…]-0 renal): 5.67 µM | TGI (786-0 renal): 13.8 µM | GI50 (OVCAR-4 ovarian): 3.43 µM | TGI (OVCAR-4 ovarian): 9.25 µM | GI50 (CCRF-CEM leukemia): 2.41 µM | TGI (CCRF-CEM leukemia): 4.78 µM | GI50 (UO-31 renal): 9.73 µM | TGI (UO-31 renal): 21.5 µM | GI50 (NCI-H23 lung): 3.54 µM | TGI (NCI-H23 lung): 9.43 µM | GI50 (SK-MEL-5 melanoma): 2.92 µM | TGI (SK-MEL-5 melanoma): 7.26 µM | GI50 (HOP-92 NSCLC): 3.32 µM | TGI (HOP-92 NSCLC): 8.76 µM | GI50 (A498 renal): 3.63 µM | TGI (A498 renal): 11.1 µM | GI50 (NCI-H226 lung): 3.65 µM | TGI (NCI-H226 lung): 10.3 µM | GI50 (UACC-257 melanoma): 2.99 µM | TGI (UACC-257 melanoma): 7.34 µM | GI50 (DU-145 prostate): 6.23 µM | TGI (DU-145 prostate): 16.2 µM | GI50 (MCF7 breast): 3.06 µM | TGI (MCF7 breast): 8.69 µM | GI50 (MDA-MB-435 melanoma): 4.32 µM | TGI (MDA-MB-435 melanoma): 14.6 µM | GI50 (TK-10 renal): 4.94 µM | TGI (TK-10 renal): 14.1 µM | GI50 (K-562 leukemia): 4.21 µM | TGI (K-562 leukemia): 13.8 µM | GI50 (SW-620 colon): 3.46 µM | TGI (SW-620 colon): 10.6 µM | GI50 (SNB-75 CNS): 3.52 µM | TGI (SNB-75 CNS): 8.36 µM | GI50 (KM12 colon): 4.51 µM | TGI (KM12 colon): 12.2 µM | GI50 (T-47D breast): 3.6 µM | TGI (T-47D breast): 10.8 µM | GI50 (CAKI-1 renal): 6.88 µM | TGI (CAKI-1 renal): 17.6 µM | GI50 (HCC-2998 colon): 3.09 µM | TGI (HCC-2998 colon): 7.88 µM | GI50 (HCT-15 colon): 12.1 µM | TGI (HCT-15 colon): 25.5 µM | GI50 (BT-549 breast): 3.49 µM | TGI (BT-549 breast): 8.64 µM | GI50 (SF-539 CNS): 3.57 µM | TGI (SF-539 CNS): 9.98 µM | GI50 (SK-OV-3 ovarian): 5.61 µM | TGI (SK-OV-3 ovarian): 13.6 µM | GI50 (PC-3 prostate): 3.72 µM | TGI (PC-3 prostate): 10.9 µM | GI50 (MALME-3M melanoma): 3.73 µM | TGI (MALME-3M melanoma): 10.5 µM | GI50 (U251 glioblastoma): 3.67 µM | TGI (U251 glioblastoma): 11.8 µM | GI50 (HOP-62 NSCLC): 4.22 µM | TGI (HOP-62 NSCLC): 11.3 µM | GI50 (SN12C renal): 3.55 µM | TGI (SN12C renal): 12.7 µM | GI50 (SK-MEL-28 melanoma): 3.07 µM | TGI (SK-MEL-28 melanoma): 7.47 µM | GI50 (NCI/ADR-RES ovarian): 32.8 µM | TGI (NCI/ADR-RES ovarian): > 92.7 µM | GI50 (SK-MEL-2 melanoma): 2.14 µM | TGI (SK-MEL-2 melanoma): 3.92 µM | GI50 (UACC-62 melanoma): 2.67 µM | TGI (UACC-62 melanoma): 5.65 µM | GI50 (HT29 colon): 2.72 µM | TGI (HT29 colon): 7.13 µM | GI50 (NCI-H460 NSCLC): 5.22 µM | TGI (NCI-H460 NSCLC): 14.9 µM | GI50 (SR leukemia): 1.57 µM | TGI (SR leukemia): 2.93 µM | GI50 (SF-268 CNS): 5.48 µM | TGI (SF-268 CNS): 15.2 µM | GI50 (OVCAR-3 ovarian): 2.32 µM | TGI (OVCAR-3 ovarian): 5.26 µM | GI50 (HCT-116 colon): 2.87 µM | TGI (HCT-116 colon): 8.51 µM | GI50 (MDA-MB-231 breast): 4.49 µM | TGI (MDA-MB-231 breast): 13.3 µM | GI50 (M14 melanoma): 4.13 µM | TGI (M14 melanoma): 9.35 µM | GI50 (SF-295 CNS): 2.94 µM | TGI (SF-295 CNS): 7.54 µM | GI50 (OVCAR-8 ovarian): 3.73 µM | TGI (OVCAR-8 ovarian): 12.9 µM | GI50 (MDA-MB-468 breast): 2.3 µM | TGI (MDA-MB-468 breast): 4.43 µM | GI50 (ACHN renal): 6.55 µM | TGI (ACHN renal): 17.6 µM
